The record followed here is US7192924B2, “Corticotropin releasing factor 2 receptor agonists” (priority 2002, dated 2007).

For one experiment, the target named is T1, CRF1R (Homo sapiens, UniProt P34998).
T1 sequence (P34998 24-415): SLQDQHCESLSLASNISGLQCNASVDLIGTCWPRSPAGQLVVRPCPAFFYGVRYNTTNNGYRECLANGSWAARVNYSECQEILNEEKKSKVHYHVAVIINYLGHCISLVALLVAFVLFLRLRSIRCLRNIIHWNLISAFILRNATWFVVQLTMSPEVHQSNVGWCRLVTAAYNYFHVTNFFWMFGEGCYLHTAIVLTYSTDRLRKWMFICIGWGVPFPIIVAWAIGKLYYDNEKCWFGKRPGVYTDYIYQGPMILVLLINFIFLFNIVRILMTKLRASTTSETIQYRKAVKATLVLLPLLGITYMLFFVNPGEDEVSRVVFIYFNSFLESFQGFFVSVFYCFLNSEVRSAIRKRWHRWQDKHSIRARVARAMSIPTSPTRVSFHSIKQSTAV
Description: CRF1R agonist activity (EC50, Emax), called comparative CRF binding. Format: cell-based. Conditions: read-out: CRF1R EC50. The method in brief:
(§1)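 Receptor activation was followed through cAMP, measured in lysates or by a CRE-linked reporter, after peptide or vehicle exposure. Cells carried a single CRF receptor subtype, CRF1R or CRF2R; where both were present, background from the non-target receptor was subtracted.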

In the next experiment the target is T2, CRF2R (Homo sapiens, UniProt Q13324).
T2 sequence (Q13324 1-411): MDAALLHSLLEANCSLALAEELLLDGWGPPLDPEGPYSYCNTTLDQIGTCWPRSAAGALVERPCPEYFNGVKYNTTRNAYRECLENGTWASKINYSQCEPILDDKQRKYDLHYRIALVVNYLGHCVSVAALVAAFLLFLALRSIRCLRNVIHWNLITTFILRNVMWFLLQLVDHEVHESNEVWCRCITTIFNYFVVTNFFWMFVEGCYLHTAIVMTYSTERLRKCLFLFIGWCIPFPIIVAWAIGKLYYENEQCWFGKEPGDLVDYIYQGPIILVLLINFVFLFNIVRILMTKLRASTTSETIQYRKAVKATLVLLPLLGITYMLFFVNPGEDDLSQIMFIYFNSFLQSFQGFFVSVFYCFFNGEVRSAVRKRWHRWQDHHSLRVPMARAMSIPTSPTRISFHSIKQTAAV
Nature of the experiment: CRF2R agonist activity (EC50, Emax), called comparative CRF binding. Format: cell-based. The conditions noted are these: read-out: CRF2R EC50. The method in brief:
as §1

Peptide text beside a SMILES is read from it.

`CC[C@H](C)[C@H](N)C(=O)N[C@H](C(=O)N[C@@H](CC(C)C)C(=O)N[C@@H](CO)C(=O)N[C@@H](CC(C)C)C(=O)N[C@@H](CC(=O)O)C(=O)N[C@H](C(=O)N1CCC[C@H]1C(=O)N[C@H](C(=O)NCC(=O)N[C@@H](CC(C)C)C(=O)N[C@@H](CC(C)C)C(=O)N[C@@H](CCC(N)=O)C(=O)N[C@H](C(=O)N[C@@H](CC(C)C)C(=O)N[C@@H](CC(C)C)C(=O)N[C@@H](CCC(=O)O)C(=O)N[C@@H](CCC(N)=O)C(=O)N[C@@H](CCCNC(=N)N)C(=O)N[C@@H](C)C(=O)N[C@@H](CCCNC(=N)N)C(=O)N[C@@H](C)C(=O)N[C@@H](C)C(=O)N[C@@H](CCCNC(=N)N)C(=O)N[C@@H](CCC(=O)O)C(=O)N[C@@H](CCC(N)=O)C(=O)N[C@@H](C)C(=O)N[C@H](C(=O)N[C@H](C(=O)N[C@@H](CC(N)=O)C(=O)N[C@@H](C)C(=O)N[C@@H](CCCNC(=N)N)C(=O)N[C@H](C(=O)N[C@@H](CC(C)C)C(=O)N[C@@H](C)C(=O)N[C@@H](CCCNC(=N)N)C(=O)N[C@H](C(N)=O)C(C)C)[C@@H](C)CC)[C@@H](C)O)[C@@H](C)O)[C@@H](C)CC)[C@@H](C)CC)C(C)C)C(C)C` [compound 137] (H-IVLSLDVPIGLLQILLEQRARAAREQATTNARILARV-NH2; N-terminus assumed): the EC50 on CRF1R was more than 100 nM; on CRF2R, 36.9 nM.

Take `CC[C@H](C)[C@H](N)C(=O)N[C@H](C(=O)N[C@@H](CC(C)C)C(=O)N[C@@H](CO)C(=O)N[C@@H](CC(C)C)C(=O)N[C@@H](CC(=O)O)C(=O)N[C@H](C(=O)N1CCC[C@H]1C(=O)N[C@H](C(=O)NCC(=O)N[C@@H](CC(C)C)C(=O)N[C@@H](CC(C)C)C(=O)N[C@@H](CCC(N)=O)C(=O)N[C@H](C(=O)N[C@@H](CC(C)C)C(=O)N[C@@H](CC(C)C)C(=O)N[C@@H](CCC(=O)O)C(=O)N[C@@H](CC(C)C)C(=O)N[C@@H](C)C(=O)N[C@@H](CCCNC(=N)N)C(=O)N[C@H](C(=O)N[C@@H](CCC(N)=O)C(=O)N[C@@H](CO)C(=O)N[C@@H](CCC(N)=O)C(=O)N[C@@H](CCCNC(=N)N)C(=O)N[C@@H](CCC(=O)O)C(=O)N[C@@H](CCCNC(=N)N)C(=O)N[C@@H](C)C(=O)N[C@@H](CCC(=O)O)C(=O)N[C@@H](CCC(N)=O)C(=O)N[C@@H](CC(N)=O)C(=O)N[C@@H](CCCNC(=N)N)C(=O)N[C@H](C(=O)N[C@H](C(=O)N[C@@H](Cc1ccccc1)C(=O)N[C@@H](CC(=O)O)C(=O)N[C@@H](CO)C(=O)N[C@H](C(N)=O)C(C)C)[C@@H](C)CC)[C@@H](C)CC)[C@@H](C)O)[C@@H](C)O)[C@@H](C)CC)C(C)C)C(C)C` [compound 160] (H-IVLSLDVPIGLLQTLLELARTQSQRERAEQNRIIFDSV-NH2; N-terminus assumed): the EC50 at CRF1R was more than 100 nM; on CRF2R, 9.15 nM.

For `CC[C@H](C)[C@H](NC(=O)[C@H](CCCNC(=N)N)NC(=O)[C@H](C)NC(=O)[C@H](CC(N)=O)NC(=O)[C@H](CCC(N)=O)NC(=O)[C@H](CCC(=O)O)NC(=O)[C@H](C)NC(=O)[C@H](CCCNC(=N)N)NC(=O)[C@H](CCC(=O)O)NC(=O)[C@H](CCCNC(=N)N)NC(=O)[C@H](CCC(N)=O)NC(=O)[C@H](CO)NC(=O)[C@H](CCC(N)=O)NC(=O)[C@@H](NC(=O)[C@H](CCCNC(=N)N)NC(=O)[C@H](C)NC(=O)[C@H](CC(C)C)NC(=O)[C@H](CCC(=O)O)NC(=O)[C@H](CC(C)C)NC(=O)[C@H](CC(C)C)NC(=O)[C@@H](NC(=O)[C@H](CCCNC(=N)N)NC(=O)[C@H](CC(C)C)NC(=O)[C@H](CC(C)C)NC(=O)[C@H](CC(C)C)NC(=O)[C@H](CC(C)C)NC(=O)[C@@H]1CCCN1C(=O)[C@H](CC(C)C)NC(=O)[C@H](CC(=O)O)NC(=O)[C@@H](NC(=O)[C@H](CO)NC(=O)[C@H](CC(C)C)NC(=O)[C@H](CO)NC(=O)[C@@H]1CCCN1C(=O)[C@H](CC(N)=O)NC(=O)[C@@H](N)CC(=O)O)[C@@H](C)CC)[C@@H](C)O)[C@@H](C)O)C(=O)N[C@@H](Cc1ccccc1)C(=O)N[C@@H](C)C(=O)N[C@@H](CCCNC(=N)N)C(=O)N[C@H](C(N)=O)C(C)C` [compound 340] (H-DNPSLSIDLPLLLLRTLLELARTQSQRERAEQNARIFARV-NH2; N-terminus assumed), the figures for the EC50 on CRF1R and on CRF2R were 739 nM and 7.99 nM, respectively.

For the molecule `CC[C@H](C)[C@H](N)C(=O)N[C@H](C(=O)N[C@@H](CC(C)C)C(=O)N[C@@H](CO)C(=O)N[C@@H](CC(C)C)C(=O)N[C@@H](CC(=O)O)C(=O)N[C@H](C(=O)N1CCC[C@H]1C(=O)N[C@H](C(=O)NCC(=O)N[C@@H](CC(C)C)C(=O)N[C@@H](CC(C)C)C(=O)N[C@@H](CCC(N)=O)C(=O)N[C@H](C(=O)N[C@@H](CC(C)C)C(=O)N[C@@H](CC(C)C)C(=O)N[C@@H](CCC(=O)O)C(=O)N[C@@H](CCSC)C(=O)N[C@@H](C)C(=O)N[C@@H](CCCNC(=N)N)C(=O)N[C@@H](C)C(=O)N[C@@H](CCC(=O)O)C(=O)N[C@@H](CCC(N)=O)C(=O)N[C@@H](CC(C)C)C(=O)N[C@@H](C)C(=O)N[C@@H](CCC(N)=O)C(=O)N[C@@H](CCC(N)=O)C(=O)N[C@@H](C)C(=O)N[C@@H](Cc1c[nH]cn1)C(=O)N[C@@H](CO)C(=O)N[C@@H](CC(N)=O)C(=O)N[C@@H](CCCNC(=N)N)C(=O)N[C@@H](CCCCN)C(=O)N[C@@H](CC(C)C)C(=O)N[C@@H](CCSC)C(=O)N[C@@H](CCC(=O)O)C(=O)N[C@H](C(=O)N[C@H](C(N)=O)[C@@H](C)CC)[C@@H](C)CC)[C@@H](C)CC)[C@@H](C)CC)C(C)C)C(C)C` [compound 164] (H-IVLSLDVPIGLLQILLEMARAEQLAQQAHSNRKLMEII-NH2; N-terminus assumed), the results for the EC50 at CRF1R and on CRF2R were more than 100 nM and 2.24 nM, respectively.

Take `CC[C@H](C)[C@H](NC(=O)[C@H](C)NC(=O)[C@H](CC(N)=O)NC(=O)[C@H](CCC(N)=O)NC(=O)[C@H](CCC(=O)O)NC(=O)[C@H](C)NC(=O)[C@H](CCCNC(=N)N)NC(=O)[C@H](CCC(=O)O)NC(=O)[C@H](CCCNC(=N)N)NC(=O)[C@H](CCC(N)=O)NC(=O)[C@H](CO)NC(=O)[C@H](CCC(N)=O)NC(=O)[C@@H](NC(=O)[C@H](CCCNC(=N)N)NC(=O)[C@H](C)NC(=O)[C@H](CC(C)C)NC(=O)[C@H](CCC(=O)O)NC(=O)[C@H](CC(C)C)NC(=O)[C@H](CC(C)C)NC(=O)[C@@H](NC(=O)[C@H](CCCNC(=N)N)NC(=O)[C@H](CC(C)C)NC(=O)[C@H](CC(C)C)NC(=O)[C@H](Cc1ccc(O)cc1)NC(=O)[C@H](CC(C)C)NC(=O)[C@@H]1CCCN1C(=O)[C@H](CC(C)C)NC(=O)[C@H](CC(=O)O)NC(=O)[C@@H](NC(=O)[C@H](CO)NC(=O)[C@H](CC(C)C)NC(=O)[C@H](CO)NC(=O)[C@@H]1CCCN1C(=O)[C@H](CC(N)=O)NC(=O)[C@@H](N)CC(=O)O)[C@@H](C)CC)[C@@H](C)O)[C@@H](C)O)C(=O)N[C@H](C(=O)N[C@@H](Cc1ccccc1)C(=O)N[C@@H](C)C(=O)N[C@@H](CO)C(=O)N[C@H](C(N)=O)C(C)C)[C@@H](C)CC` [compound 177] (H-DNPSLSIDLPLYLLRTLLELARTQSQRERAEQNAIIFASV-NH2; N-terminus assumed): the EC50 at CRF1R was found to be 613 nM; on CRF2R, 5.63 nM.

For the molecule `CC[C@H](C)[C@H](N)C(=O)N[C@H](C(=O)N[C@@H](CC(C)C)C(=O)N[C@@H](CO)C(=O)N[C@@H](CC(C)C)C(=O)N[C@@H](CC(=O)O)C(=O)N[C@H](C(=O)N1CCC[C@H]1C(=O)N[C@H](C(=O)NCC(=O)N[C@@H](CC(C)C)C(=O)N[C@@H](CC(C)C)C(=O)N[C@@H](CCC(N)=O)C(=O)N[C@H](C(=O)N[C@@H](CC(C)C)C(=O)N[C@@H](CC(C)C)C(=O)N[C@@H](CCC(=O)O)C(=O)N[C@@H](CCC(N)=O)C(=O)N[C@@H](C)C(=O)N[C@@H](CCCNC(=N)N)C(=O)N[C@@H](CCC(N)=O)C(=O)N[C@@H](CCC(=O)O)C(=O)N[C@@H](C)C(=O)N[C@@H](C)C(=O)N[C@@H](CCCNC(=N)N)C(=O)N[C@@H](CCC(=O)O)C(=O)N[C@@H](CCC(N)=O)C(=O)N[C@@H](C)C(=O)N[C@H](C(=O)N[C@H](C(=O)N[C@@H](CC(N)=O)C(=O)N[C@@H](C)C(=O)N[C@@H](CCCNC(=N)N)C(=O)N[C@H](C(=O)N[C@@H](CC(C)C)C(=O)N[C@@H](C)C(=O)N[C@@H](CCCNC(=N)N)C(=O)N[C@H](C(N)=O)C(C)C)[C@@H](C)CC)[C@@H](C)O)[C@@H](C)O)[C@@H](C)CC)[C@@H](C)CC)C(C)C)C(C)C` [compound 123] (H-IVLSLDVPIGLLQILLEQARQEAAREQATTNARILARV-NH2; N-terminus assumed), the EC50 on CRF1R was more than 1000 nM; at CRF2R, 3.49 nM.

By EC50 is commonly meant the concentration at which the effect is half-maximal.
